Data as given in US6333424A, “Therapeutic derivatives of diphosphonates” (priority 1999, dated 2001).
Converted amounts (≈) assume the structure as drawn. Like-named read-outs stand apart in the source and are kept apart here.

Columns and labels:
Assay in all cases: MIC by agar dilution method
Assay type in all cases: cell-based
[1] = test system: Staphylococcus aureus ATCC 25923
[2] = test system: Staphylococcus epidermis OKI 110001; settings: OKI110001
[3] = test system: Escherichia coli OKI 35034
[4] = test system: Proteus vulgaris OKI 60002
[5] = test system: Pseudomonas aeruginosa ATCC 27853; settings: ATCC27853
[6] = test system: Helicobacter pylori 27604
[7] = test system: Helicobacter pylori 27606
[8] = test system: Streptococcus fecalis OKI 80171; settings: OKI80171, Streptococcus fecalis OKI 80171, agar dilution
[9] = test system: Salmonella typhi OKI 10084; settings: Salmonella enterica, Salmonella typhi OKI 10084, agar dilution
[10] = ATCC25923, Staphylococcus aureus ATCC 25923, agar dilution, read-out: MIC
[11] = Escherichia coli, OKI35034, Escherichia coli OKI 35034, agar dilution, read-out: MIC
[12] = Proteus vulgaris, OKI60002, Proteus vulgaris OKI 60002, agar dilution, read-out: MIC
[13] = Helicobacter pylori 27604, agar dilution, read-out: MIC
[14] = Helicobacter pylori 27606, agar dilution, read-out: MIC

With `CC1(C)S[C@@H]2[C@H](NC(=O)[C@H](N)c3ccc(O)cc3)C(=O)N2[C@H]1C(=O)O` [Amoxicillin, amoxicillin] the MIC [1, 10] was ≥ 0.39 µg/mL, the MIC ([2]; Staphylococcus epidermis OKI 110001, agar dilution, read-out: MIC) was ≥ 0.39 µg/mL and the MIC ([3]; Escherichia coli OKI 35034, agar dilution) was 50 µg/mL (≈ 137 µM). The MIC [3, 11] was 25 µg/mL (≈ 68.4 µM), the MIC ([4]; Proteus vulgaris OKI 60002, agar dilution) was 100 µg/mL (≈ 274 µM) and the MIC [4, 12] was 50 µg/mL (≈ 137 µM). The MIC ([5]; Pseudomonas aeruginosa ATCC 27853, agar dilution, read-out: MIC) was > 100 µg/mL, the MIC [6, 13] was ≥ 0.39 µg/mL and the MIC [7, 14] was ≥ 0.39 µg/mL.
Work on `CCOP(=O)(OCC)C(CSCC(=O)OCOC(=O)N1CCN(c2cc3c(cc2F)c(=O)c(C(=O)O)cn3CC)CC1)P(=O)(OCC)OCC` [Example 1 B, 7-(4-((2,2-Bis-(diethoxyphosphoryl)-ethylsulfanyl)-acetoxymethoxycarbonyl)-piperazin-1-yl)-1-ethyl-6-fluoro-4-oxo-1,4-dihydroquinoline-3-carboxylic acid] yielded an MIC ([1]; ATCC25923) of 6.25 µg/mL (≈ 8.14 µM), an MIC ([2]; Staphylococcus) of 1.56 µg/mL (≈ 2.03 µM) and an MIC [8] of 12.5 µg/mL (≈ 16.3 µM). The MIC ([9]; read-out: MIC) was ≥ 0.78 µg/mL, the MIC ([3]; Escherichia coli, OKI35034, Escherichia coli OKI 35034, agar dilution) was ≥ 0.39 µg/mL and the MIC ([4]; Proteus vulgaris, OKI60002) was 1.56 µg/mL (≈ 2.03 µM). It also gave an MIC ([5]; Pseudomonas aeruginosa) of 12.5 µg/mL (≈ 16.3 µM), an MIC ([6]; Helicobacter pylori, 27604) of 6.25 µg/mL (≈ 8.14 µM) and an MIC ([7]; Helicobacter pylori, 27606) of 3.12 µg/mL (≈ 4.06 µM).
Molecule `CCn1cc(C(=O)O)c(=O)c2cc(F)c(N3CCNCC3)cc21` [Norfloxacin, norfloxacin] has an MIC [1, 10] of 6.25 µg/mL (≈ 19.6 µM), an MIC ([2]; Staphylococcus) of 1.56 µg/mL (≈ 4.89 µM) and an MIC [8] of 12.5 µg/mL (≈ 39.1 µM). The MIC ([9]; TYPHI) was ≥ 0.39 µg/mL, the MIC [3, 11] was ≥ 0.39 µg/mL and the MIC [4, 12] was 0.78 µg/mL (≈ 2.44 µM). It also gave an MIC ([5]; Pseudomonas aeruginosa) of 12.5 µg/mL (≈ 39.1 µM), an MIC [6, 13] of 6.25 µg/mL (≈ 19.6 µM) and an MIC [7, 14] of 6.25 µg/mL (≈ 19.6 µM).
